# Results from publication PMC12658643, “Effects of Ligand N and O Donor Content on the Structure, Aqueous Stability, and SOD Activity of a Series of Mn^2+ Complexes with Pyridine-Containing Tripodal Ligands” (ACS Omega, 2025).
# Like-named read-outs stand apart in the source and are kept apart here.
# B1: Human MnSOD: human manganese superoxide dismutase enzyme (protein, UniProt P04179 25-222, looked up)
# Superoxide dismutase [Mn], …: KHSLPDLPYDYGALEPHINAQIMQLHHSKHHAAYVNNLNVTEEKYQEALAKGDVTAQIALQPALKFNGGGHINHSIFWTNLSPNGGGEPKGELLEAIKRDFGSFDKFKEKLTAASVGVQGSGWGWLGFNKERGHLQIAACPNQDPLQGTTGLIPLLGIDVWEHAYYLQYKNVRPDYLKAIWNVINWENVTERYMACKK
# Experiments:
# [1] = Potentiometric titration of the acidified ligands (protonation constants); settings: I = 0.10 M KCl; for Log βLH1 (protonation constant of the ligand) / Log βLH2 (protonation constant of the ligand): t = 25 °C; for Log Ka1 / Log Ka2: Table S35, t = 25°C
# [2] = for Log βMnL (stability constant of the Mn^2+ complex) / pK aMnL(H2O) (acid dissociation constant of an associated aqua ligand) / Log Ka MnL(H2O) / Log bMnL: I = 0.10 M KCl; for Log βMnL (stability constant of the Mn^2+ complex) / pK aMnL(H2O) (acid dissociation constant of an associated aqua ligand): t = 25 °C; for conditional complex formation: McCord-Fridovich assay conditions, HEPES buffer pH 7.5, excess ligand, Mn^2+ 0.1 μM, estimated from βMnL; for Log Ka MnL(H2O) / Log bMnL: Table S35, t = 25°C; for % Complex (McCord-Fridovich assays): Table S37, ligand 0.001 M (TMPA, DPEA, DPMEA) or 0.01 M (PDEA, PDMEA), MnCl2 0.1 µM, estimated from stability studies; for % Complex (complex formation under cyclic voltammetry conditions): ligand 0.001 M (TMPA) or 0.01 M, MnCl2 0.001 M, estimated from complex stability studies
# [3] = tested on: superoxide ion; assay: McCord-Fridovich assay (SOD activity, inhibition of ferricytochrome c reduction by superoxide ion); type: biochemical
# From the text: The McCord–Fridovich assay was used to measure the SOD activity of the Mn^2+ complexes of our ligands formed in situ. This assay utilizes the reaction of xanthine oxidase with xanthine to produce superoxide ion which, in turn, reduces ferricytochrome C. The reduction of ferricytochrome C is monitored at 550 nm in the absence and presence of SOD mimics to determine the concentration at which the complexes inhibit ferricytochrome C reduction by 50%, their IC50 value. […] Stock solutions of cytochrome C, xanthine, xanthine oxidase, catalase, and MnCl2 were also prepared with this buffer. The temperature of the reactions was held constant at 25 °C using a Peltier attachment to the spectrophotometer. For a typical reaction, a solution was prepared in a cuvette containing 50 μM cytochrome c, 50 μM xanthine, 30 μg/mL catalase, and enough buffer to provide a total of 3 mL of solution. Approximately 100 μg/mL xanthine oxidase was added to initiate the reaction. This quantity was adjusted to give an initial velocity of 0.025–0.030 ΔAbs550nm/min. The reaction was monitored at 550 nm. After 2.5 min, a quantity of MnCl2 was added and the absorbance was monitored for another 2.5 min. Reactions were run in triplicate for each different concentration of Mn^2+ examined, and percent inhibition was calculated as %I=(V0−Vf/V0)×100% , where V 0 and V f are the initial and final velocities respectively. Plots of %I vs [Mn^2+] were used to determine the IC50 for each complex. To verify the fidelity of the McCord-Fridovich assay, the production of urate by the xanthine/xanthine oxidase reaction at 290 nm in the absence and presence of each complex, and no inhibition at a concentration higher than the IC50 was observed.
# The SOD-like activity of Mn^2+ complexes of the tripodal ligands was evaluated using the McCord-Fridovich assay. This is an indirect assay that examines the reduction of ferricytochrome c by superoxide ion in the absence and presence of SOD or potential SOD mimetic compounds. The reaction of xanthine with xanthine oxidase provides a source of superoxide ion for the assay, and the reduction of ferricytochrome c is monitored at 550 nm. Given their low to moderate aqueous stability, it was not possible to use preformed complexes for these assays since we would not expect them to remain intact at the micromolar concentrations employed. Instead, Mn^2+ complexes were formed in situ, in buffered, aqueous solution (pH 7.5), by combining the ligands with manganese(II) chloride. In each case, an excess of ligand was included to produce Mn^2+ complexation as close to 100% as possible, while avoiding solubility issues. Percent complexation of the complexes under these conditions has been estimated from the 1:1 [MnL]^2+ stability constants (βMnL) in Table , based on the ligand complex concentration employed and an Mn^2+ concentration close to the IC50 values of the complexes (0.1 μM). We note that, given the high concentrations of ligand present in our experiments, higher speciation complexes (e.g., [MnL2]^2+) may also be present in our reaction solutions, resulting from adventitious mono-or bidentate-coordination of an additional ligand. These types of species have been observed previously for Mn^2+ complexes with a related ligand (HPClNOL), where HPClNOL is the tripodal ligand {1-[bis(pyridine-2-ylmethyl)-amino]-3-chloropropan-2-ol}, yet in a 50:50, MeOH/H2O solution where overall complex stability is expected to be much higher. Since we cannot rule out higher speciation under the conditions of these in situ experiments, our use of the term Mn^2+ complexes is meant to indicate all [MnL]^2+ or [MnL x ]^2+ species present in reaction solutions here.
# Percent inhibition plots for MnCl2 in both HEPES and phosphate buffer are provided in Supporting Information (Figures S35 and S36). […]
# [4] = Cyclic voltammetry of Mn^2+ complexes formed in situ, Mn^III/Mn^II couple; type: physicochemical
# Procedure: Cyclic voltammograms were recorded in 50 mM collidine buffer, pH 7.5, using an eDAQ 466 Integrated Potentiostat System with EChem software. Mn^2+ complexes were formed in situ in the presence of excess ligand to ensure a high percentage of complex formation (see Table S35 in Supporting Information) according to our stability studies vide infra. A glassy carbon working electrode, Ag/AgCl reference electrode, and Pt/Ti auxiliary electrode were employed. Prior to recording CVs, solutions were bubbled with nitrogen gas for 15 min to eliminate oxygen. CVs were then recorded at a scan rate of 100 mV/s.
# Cyclic voltammograms of the Mn^2+ complexes of TMPA, DPEA, DPMEA, PDEA, and PDMEA, prepared in situ in buffered aqueous solution (pH 7.5), were recorded vs Ag/AgCl to determine the reduction potential (E 1/2) for the Mn^III/Mn^II couple. A cyclic voltammogram of MnCl2 in the buffered solution was also recorded for the purpose of comparison. Collidine buffer was employed for analysis since it tends to permit visualization of electrochemical waves for Mn^2+ complexes with pyridine-containing ligands, where other solvents/buffers can lead to ill-defined or absent features for these species. Ligand and MnCl2 concentrations were chosen to ensure near complete (N4 and N3O), or substantial (N2O2) complex formation according to our stability studies. For [MnTMPA]^2+, an equimolar amount of TMPA and MnCl2 were used (0.001 M), and for all other complexes, ligand concentration (0.01 M) was 10-fold the concentration of MnCl2 (0.001 M). In each case, […] waves were recorded where the difference in oxidation and reduction peak positions (ΔE p) is greater than 59 mV. Redox potential values (E 1/2), determined from the average of the positions of the oxidation and reduction peaks, are given in Table along with ΔE p values. The distinct positions of these peaks, relative to those of MnCl2, further corroborate [MnL]^2+ aqueous complex formation of the N4, N3O, and N2O2 ligands employed. Voltammograms can be found in Supporting Information (Figures S29–S34 ).
# [5] = given for comparison to the complexes; reference not given; cited from earlier work
# [6] = HEPES buffer, pH 7.5, measured IC50 corrected for expected percent complex formation, read-out: apparent IC50
# [7] = Mn^2+ complexes formed in situ with excess ligand, 50 mM HEPES buffer, pH 7.5, 25 °C, concentration as Mn^2+, read-out: measured IC50
# [8] = HEPES buffer, pH 7.5, estimated using kcat=kcytc[cytc]/IC50, k cytc = 2.6 × 10^5 M^–1 s^–1, [cyt c] = 5 × 10^–5 M
# [9] = collidine buffer, pH 7.5, scan rate 100 mV/s, vs Ag/AgCl
Molecule,Log βLH1 (protonation constant of the ligand) [1],Log βLH2 (protonation constant of the ligand) [1],Log Ka1 [1],Log Ka2 [1],Log βMnL (stability constant of the Mn^2+ complex) [2],pK aMnL(H2O) (acid dissociation constant of an associated aqua ligand) [2],conditional complex formation [2],Log Ka MnL(H2O) [2],Log bMnL [2],% Complex (McCord-Fridovich assays) [2],% Complex (complex formation under cyclic voltammetry conditions) [2],"IC50 [3, 6]","IC50 [3, 7]",other results
"OCCN(Cc1ccccn1)Cc1ccccn1 [DPEA, N,N-Bis(2-pyridylmethyl)ethanolamine]",6.10(1),9.40(3),6.10(1),9.40(3),4.12(1),5.63(1),92%,-5.63(1),4.12(1),92%,98%,140 nM,150 nM,
"OCCN(CCO)Cc1ccccn1 [PDEA, 2,2′-((Pyridin-2-ylmethyl)azanediyl)bis(ethan-1-ol)]",6.78(1),,6.78(1),,,7.00(2),66%,-7.00(2),,66%,66%,70 nM,110 nM,
"COCCN(CCOC)Cc1ccccn1 [PDMEA, 2-Methoxy-N-(2-methoxyethyl)-N-(pyridin-2-ylmethyl)ethan-1-amine]",6.90(2),,6.90(2),,2.32(2),6.6(1),61%,-6.6(1),2.32(2),61%,61%,790 nM,1300 nM,"k cat [3, 8]: 1.6 × 10^7 M^–1 s^–1"
"COCCN(Cc1ccccn1)Cc1ccccn1 [DPMEA, 2-Methoxy-N,N-bis(pyridin-2-ylmethyl)ethan-1-amine]",6.19(1),9.81(1),6.19(1),9.81(1),3.71(2),6.07(2),80%,-6.07(2),3.71(2),80%,97%,480 nM,600 nM,
"c1ccc(CN(Cc2ccccn2)Cc2ccccn2)nc1 [TMPA, Tris(pyridin-2-ylmethyl)amine]",6.01(1),10.08(1),6.01(1),10.08(1),5.24(2),4.98(3),99%,-4.98(3),5.24(2),99%,93%,300 nM,300 nM,
"[Cl][Mn][Cl] [MnCl2, manganese(II) chloride, reference compound]",,,,,,,,,,,,,13000 nM,"ΔE p ([4]; collidine buffer, pH 7.5, scan rate 100 mV/s): 0.285; E oxid [4, 9]: 0.415 V; E red [4, 9]: 0.130 V; E 1/2 vs Ag/AgCl ([4]; collidine buffer, pH 7.5, average of oxidation and reduction peak positions): 0.273 V; E 1/2 vs SHE ([4]; converted using E 1/2 SHE = E 1/2 Ag/AgCl + 0.197 V): 0.470 V; k cat ([3]; 50 mM phosphate buffer, pH 7.5, estimated from IC50): 2.8 × 10^7 M^–1 s^–1; IC50 ([3]; 50 mM phosphate buffer, pH 7.5, read-out: measured IC50): 470 nM; SOD activity in the range of the IC50 values of the complexes ([3]; HEPES buffer): do not observe measurable SOD activity; k cat [3, 8]: 1.0 × 10^6 M^–1 s^–1"
B1,,,,,,,,,,,,,,E 1/2 vs SHE of MnSOD enzymes [5]: 0.29 V
